Experimental data published in US8221736B2, “Semiochemical” (Rothamsted Research Limited, priority 1999, dated 2012).
Marks after values point to notes of the source that are not given here.

Legend:
[1] = tested on: black bean aphid, Aphis fabae; details: J. Chem. Ecol. 20 (1994), Pettersson et al., Hardie et al.; cited from earlier work
[2] = tested on: grain aphid, Sitobion avenae; details: J. Chem. Ecol. 20 (1994), Pettersson et al., Hardie et al.; cited from earlier work
[3] = tested on: aphid parasitoid Aphidius ervi; assay: Wind tunnel single choice test of A. ervi with synthetic compounds on filter paper; assay type: in vivo; details: 10 μg on filter paper, hexane control 26.7
Description: Since semiochemicals acting as repellents or inhibitors of host attractancy for herbivorous insects are often involved in predation or parasitism, the activity of cis-jasmone was also investigated at higher trophic levels. […] These experiments indicate a behavioural role for cis-jasmone in influencing interactions between plants, herbivorous insects and their predators and parasitoids. Naive female A. ervi were flown in a wind tunnel, as described in J. Chem. Ecol. 16, 381-396 (1996) (Poppy et al.). The parasitoids were released 25 cm downwind (single choice tests) or 40 cm downwind (dual choice test) of the target, which was either a plant or a synthetic compound (10 μg in 10 μl hexane) placed on a 2×1 cm strip of filter paper (Whatman No. 1) surrounded by a ring of green crêpe paper. The proportions of parasitoids responding with an oriented flight to the synthetic chemicals were calculated each day on 3 separate days. These values were then subjected to a logit transformation to normalize the data before being analysed by ANOVA followed by Tukey post-hoc tests. The number of parasitoids orienting upwind to the single plant target were recorded and subjected to a χ^2 contingency test (Pearson method on Genstat—see Genstat 5 Committee. Genstat 5 Reference Manual, Release 3 (Clarendon Press, Oxford, 1993)) to determine whether an orienting response was linked to the type of plant treatment. The numbers orienting to each plant in the dual choice test were analysed by a χ^2 to determine whether one plant was more attractive than the other.

[4] = tested on: D251 sequence in Vicia faba plants; assay: Differential display and northern blot of gene-specific sequence D251; assay type: in vivo; details: northern blot, versus air
Experimental: Total RNA was isolated from stem or leaf tissue of plants exposed to air, methyl jasmonate or cis-jasmone. 10 μg RNA per sample was loaded and separated on a formaldehyde gel (Panel A). The samples were then transferred to a nylon membrane and probed with the D251 sequence (Panel B). Lane 1=air treatment (control); lane 2=cis-jasmone treatment; lane 3=methyl jasmonate treatment. In the case of RNA isolated from leaf tissue, only cis-jasmone treatment results in upregulation. In order to determine if cis-jasmone was capable of inducing alterations in plant gene expression, the sensitive technique of differential display was carried out on RNA extracted from plants which had been exposed to air, methyl jasmonate or cis-jasmone. […] To confirm this observation, bands of interest were recovered by excision from the dried gel and re-amplified with the appropriate pair of oligonucleotide primers. The resulting PCR products were cloned and sequenced to confirm the homogeneous nature of the amplified product. These sequences were then used to probe RNA isolated from control or treated V. faba plants. […] It is important to note that the nature of the differential display technique generates short gene-specific probes, containing mainly 3′ untranslated regions of transcribed sequences, and therefore the functional part of the differentially expressed gene is unknown. Thus, using differential display and confirmatory northern blotting, we have shown that methyl jasmonate and cis-jasmone have apparently distinct effects on plant gene expression. […] Thus, the two compounds have distinct effect on plant gene expression and the response to these signalling compounds may be tissue-specific.

[5] = tested on: broad bean, V. faba (cv The Sutton); assay: Induction of volatile release by bean plants (air entrainment, GC/GC-MS); assay type: in vivo, Vicia faba; details: 24 hour exposure at 100 μg/l in air; 48 hour entrainments
Experimental: A possible role for the compound as an airborne plant signal was investigated using the broad bean, V. faba (cv The Sutton). Plants were kept for 24 hours in clean air or in air incorporating cis-jasmone at 100 μg/l; subsequently, samples of volatiles released by the plants were obtained by entrainment over 4 periods of 48 hours, i.e. up to 192 hours after the end of the treatment. The cis-jasmone itself was undetectable after 48 hours. […] There was also, from some replicates, enhancement of (E,E)-α-farnesene, (−)-β-caryophyllene and (E)-4,8-dimethyl-1,3,7-nonatriene. These compounds have all been implicated in herbivorous insect-induced production and increased parasitoid foraging. The nonatriene can also be produced innately by plants imitating damage for defence against herbivores and which are thus attractive to parasitoids.
Bean plants, V. faba (cv The Sutton) were grown under standard glasshouse conditions until the 2-4 leaf stage when they were rinsed free of soil and transplanted into baked glass jars containing washed sand, with 3 plants per jar. These were left for 1-2 days to acclimatize. Plants to be treated (three jars of three plants each) were sealed in a 25 l glass tank for 24 hours with either cis-jasmone or methyl jasmonate (2.5 mg) applied to a piece of filter paper (Whatman No. 1) placed on the floor of the tank. […]

COC(=O)c1ccccc1O [Methyl salicylate]
behavioural effect on black bean aphid [1]: repelling
behavioural effect on cereal aphids including the grain aphid [2]: repelling

C=C/C(C)=C/C/C=C(\C)CCC=C(C)C [(E,E)-α-farnesene]
% showing oriented flight [3]: 60.9^a %

CC/C=C\CC1C(=O)CCC1CC(=O)OC (stereo not shown) [methyl jasmonate, reference compound]
expression of D251 sequence in leaf tissue ([4]; RNA from leaf tissue of plants exposed to vapour): only cis-jasmone brought about an increase
expression of D251 sequence in stem tissue ([4]; RNA from stem tissue of plants exposed to vapour): upregulated to a similar level
effect on levels of (E)-β-ocimene released [5]: did not significantly increase

C=C/C(C)=C/CC=C(C)C [(E)-β-ocimene]
% showing oriented flight [3]: 48.8^a %
